Data reported in patent publication US12404295B2, “(Hetero)aryl-methyl-thio-beta-D-galactopyranoside derivatives” (Idorsia Pharmaceuticals Ltd, priority 2019, dated 2025).
Like-named read-outs stand apart in the source and are kept apart here.

Tests used:
human Gal-3 (hGal-3) = human Gal-3 (hGal-3) (Homo sapiens (Human), UniProt P17931); assay: competitive binding assay: biotinylated hGal-3 binding to microplate-adsorbed asialofetuin (ASF)
In short: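 Serially diluted compounds compete with biotinylated hGal-3 binding to adsorbed asialofetuin (3 hours, 4° C). After washing, streptavidin-peroxidase at 80 ng/mL for 1 hour at 4° C, with ABTS colour read-out. IC50 values are averaged over repeated runs.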

human Gal-1 (hGal-1) = human Gal-1 (hGal-1) (Homo sapiens (Human), UniProt P09382); assay: competitive binding assay: biotinylated hGal-1 binding to microplate-adsorbed asialofetuin (ASF); conditions: Table 15; read-out: IC50 (Galectin-1 inhibition)
In short: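 Spectrophotometric competition readout: after compound and biotinylated hGal-1 (300-1000 ng/mL) sit 3 h at 4° C on adsorbed asialofetuin, streptavidin-peroxidase (1 h, 4° C) and ABTS reveal residual binding. Reported IC50 values are means of repeat runs.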

[1] = Table 11, read-out: IC50 (Gal-3 inhibition)
[2] = Gal-3 inhibition, binding of biotinylated hGal-3 to ASF, mean values, read-out: IC50

human Gal-3 (hGal-3), sequence (P17931 whole entry): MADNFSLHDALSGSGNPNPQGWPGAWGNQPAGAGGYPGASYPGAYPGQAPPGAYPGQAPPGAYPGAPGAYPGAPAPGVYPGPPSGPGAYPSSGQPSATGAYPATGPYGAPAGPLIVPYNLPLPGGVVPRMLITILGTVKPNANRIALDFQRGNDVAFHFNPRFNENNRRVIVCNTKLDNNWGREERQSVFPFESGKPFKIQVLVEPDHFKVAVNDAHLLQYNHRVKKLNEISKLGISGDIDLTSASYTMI
human Gal-1 (hGal-1), sequence (P09382 whole entry): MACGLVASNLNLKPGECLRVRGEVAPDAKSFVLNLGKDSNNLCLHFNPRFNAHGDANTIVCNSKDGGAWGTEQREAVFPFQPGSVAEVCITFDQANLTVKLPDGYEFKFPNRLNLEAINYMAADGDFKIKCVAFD

`CO[C@@H]1[C@@H](n2cc(-c3cc(F)c(F)c(F)c3)nn2)[C@@H](O)[C@@H](CO)O[C@H]1SC(c1nc(Cl)ccc1Cl)C1(O)CCC(F)(F)CC1` (stereo partly drawn) [Example 2.44.144.I., (2R,3R,4S,5R,6S)-6-(((3,6-Dichloropyridin-2-yl)(4,4-difluoro-1-hydroxycyclohexyl)methyl)thio)-2-(hydroxymethyl)-5-methoxy-4-(4-(3,4,5-trifluorophenyl)-1H-1,2,3-triazol-1-yl)tetrahydro-2H-pyran-3-ol] was tested, and the IC50 (human Gal-3 (hGal-3); [1]) was 250 nM and the IC50 (human Gal-1 (hGal-1)) was 4160 nM.

Compound `CO[C@@H]1[C@@H](n2cc(-c3cc(F)c(F)c(F)c3)nn2)[C@@H](O)[C@@H](CO)O[C@H]1SC(c1noc(C2CC2)c1C)C1(O)CCC(F)(F)CC1` (stereo partly drawn) [Example 2.44.145.I.] has an IC50 (human Gal-3 (hGal-3); [1]) of 710 nM and an IC50 (human Gal-1 (hGal-1)) of 1260 nM.

With `CO[C@@H]1[C@@H](n2cc(-c3cc(F)c(F)c(F)c3)nn2)[C@@H](O)[C@@H](CO)O[C@H]1S[C@H](c1noc(C2CC2)c1C)C1(O)CCC(F)(F)CC1` [Example 2.44.145R.I., (2R,3R,4S,5R,6S)-6-(((R)-(5-Cyclopropyl-4-methylisoxazol-3-yl)(4,4-difluoro-1-hydroxycyclohexyl)methyl)thio)-2-(hydroxymethyl)-5-methoxy-4-(4-(3,4,5-trifluorophenyl)-1H-1,2,3-triazol-1-yl)tetrahydro-2H-pyran-3-ol] the IC50 (human Gal-3 (hGal-3); [1]) was 250 nM and the IC50 (human Gal-1 (hGal-1)) was 1200 nM.

In the case of `CO[C@@H]1[C@@H](n2cc(-c3cc(F)c(F)c(F)c3)nn2)[C@@H](O)[C@@H](CO)O[C@H]1S[C@@H](c1noc(C2CC2)c1C)C1(O)CCC(F)(F)CC1` [Example 2.44.145S.I., (2R,3R,4S,5R,6S)-6-(((S)-(5-Cyclopropyl-4-methylisoxazol-3-yl)(4,4-difluoro-1-hydroxycyclohexyl)methyl)thio)-2-(hydroxymethyl)-5-methoxy-4-(4-(3,4,5-trifluorophenyl)-1H-1,2,3-triazol-1-yl)tetrahydro-2H-pyran-3-ol], the IC50 (human Gal-3 (hGal-3); [1]) is reported as 11200 nM and the IC50 (human Gal-1 (hGal-1)) is reported as 31000 nM.

Work on `CCCc1onc(C(S[C@@H]2O[C@H](CO)[C@H](O)[C@H](n3cc(-c4cc(F)c(F)c(F)c4)nn3)[C@H]2OC)C2(O)CCC(F)(F)CC2)c1CC` (stereo partly drawn) [Example 2.44.146.I., (2R,3R,4S,5R,6S)-6-(((4,4-Difluoro-1-hydroxycyclohexyl)(4-ethyl-5-propylisoxazol-3-yl)methyl)thio)-2-(hydroxymethyl)-5-methoxy-4-(4-(3,4,5-trifluorophenyl)-1H-1,2,3-triazol-1-yl)tetrahydro-2H-pyran-3-ol] yielded an IC50 (human Gal-3 (hGal-3); [1]) of 120 nM and an IC50 (human Gal-1 (hGal-1)) of 170 nM.

`CO[C@@H]1[C@@H](n2cc(-c3cc(F)c(F)c(F)c3)nn2)[C@@H](O)[C@@H](CO)O[C@H]1SC(c1nccc(C(F)(F)F)c1C)C1(O)CCC(F)(F)CC1` (stereo partly drawn) [Example 2.44.147.I., (2R,3R,4S,5R,6S)-6-(((4,4-Difluoro-1-hydroxycyclohexyl)(3-methyl-4-(trifluoromethyl)pyridin-2-yl)methyl)thio)-2-(hydroxymethyl)-5-methoxy-4-(4-(3,4,5-trifluorophenyl)-1H-1,2,3-triazol-1-yl)tetrahydro-2H-pyran-3-ol] was tested, and the IC50 (human Gal-3 (hGal-3); [1]) was 240 nM and the IC50 (human Gal-1 (hGal-1)) was 1240 nM.

In the case of `CO[C@@H]1[C@@H](n2cc(-c3cc(F)c(F)c(F)c3)nn2)[C@@H](O)[C@@H](CO)O[C@H]1S[C@H](c1nccc(C(F)(F)F)c1C)C1(O)CCC(F)(F)CC1` [Example 2.44.147R.I., (2R,3R,4S,5R,6S)-6-(((R)-(4,4-Difluoro-1-hydroxycyclohexyl)(3-methyl-4-(trifluoromethyl)pyridin-2-yl)methyl)thio)-2-(hydroxymethyl)-5-methoxy-4-(4-(3,4,5-trifluorophenyl)-1H-1,2,3-triazol-1-yl)tetrahydro-2H-pyran-3-ol], the IC50 (human Gal-3 (hGal-3); [1]) is reported as 190 nM and the IC50 (human Gal-1 (hGal-1)) is reported as 760 nM.

With `CO[C@@H]1[C@@H](n2cc(-c3cc(F)c(F)c(F)c3)nn2)[C@@H](O)[C@@H](CO)O[C@H]1S[C@@H](c1nccc(C(F)(F)F)c1C)C1(O)CCC(F)(F)CC1` [Example 2.44.147S.I., (2R,3R,4S,5R,6S)-6-(((S)-(4,4-Difluoro-1-hydroxycyclohexyl)(3-methyl-4-(trifluoromethyl)pyridin-2-yl)methyl)thio)-2-(hydroxymethyl)-5-methoxy-4-(4-(3,4,5-trifluorophenyl)-1H-1,2,3-triazol-1-yl)tetrahydro-2H-pyran-3-ol] the IC50 (human Gal-3 (hGal-3); [1]) was 5300 nM and the IC50 (human Gal-1 (hGal-1)) was 31800 nM.

With `CO[C@@H]1[C@@H](n2cc(-c3cc(F)c(F)c(F)c3)nn2)[C@@H](O)[C@@H](CO)O[C@H]1S[C@H](c1nc(C)ccc1Cl)C1(O)CCC(F)(F)CC1` [Example 2.44.148R.I., (2R,3R,4S,5R,6S)-6-(((R)-(3-Chloro-6-methylpyridin-2-yl)(4,4-difluoro-1-hydroxycyclohexyl)methyl)thio)-2-(hydroxymethyl)-5-methoxy-4-(4-(3,4,5-trifluorophenyl)-1H-1,2,3-triazol-1-yl)tetrahydro-2H-pyran-3-ol] the IC50 (human Gal-3 (hGal-3); [1]) was 240 nM and the IC50 (human Gal-1 (hGal-1)) was 3040 nM.

For `CO[C@@H]1[C@@H](n2cc(-c3cc(F)c(F)c(F)c3)nn2)[C@@H](O)[C@@H](CO)O[C@H]1S[C@@H](c1nc(C)ccc1Cl)C1(O)CCC(F)(F)CC1` [Example 2.44.148S.I., (2R,3R,4S,5R,6S)-6-(((S)-(3-Chloro-6-methylpyridin-2-yl)(4,4-difluoro-1-hydroxycyclohexyl)methyl)thio)-2-(hydroxymethyl)-5-methoxy-4-(4-(3,4,5-trifluorophenyl)-1H-1,2,3-triazol-1-yl)tetrahydro-2H-pyran-3-ol], the IC50 (human Gal-3 (hGal-3); [1]) was 6990 nM and the IC50 (human Gal-1 (hGal-1)) was 31000 nM.

`CO[C@@H]1[C@@H](n2cc(-c3cc(F)c(F)c(F)c3)nn2)[C@@H](O)[C@@H](CO)O[C@H]1SC(c1nc(C)ccc1C)C1(O)CCC(F)(F)CC1` (stereo partly drawn) [Example 2.44.149.I., (2R,3R,4S,5R,6S)-6-(((4,4-Difluoro-1-hydroxycyclohexyl)(3,6-dimethylpyridin-2-yl)methyl)thio)-2-(hydroxymethyl)-5-methoxy-4-(4-(3,4,5-trifluorophenyl)-1H-1,2,3-triazol-1-yl)tetrahydro-2H-pyran-3-ol] was tested, and the IC50 (human Gal-3 (hGal-3); [1]) was 400 nM and the IC50 (human Gal-1 (hGal-1)) was 2800 nM.

`OC[C@H]1O[C@@H](SC(c2ccccc2C(F)(F)F)C2(O)CCNCC2)[C@H](O)[C@@H](n2cc(-c3cc(F)c(F)c(F)c3)nn2)[C@H]1O` (stereo partly drawn) [Example 2.45.112., (2R,3R,4S,5R,6S)-2-(Hydroxymethyl)-6-(((4-hydroxypiperidin-4-yl)(2-(trifluoromethyl)phenyl)methyl)thio)-4-(4-(3,4,5-trifluorophenyl)-1H-1,2,3-triazol-1-yl)tetrahydro-2H-pyran-3,5-diol] was tested, and the IC50 (human Gal-3 (hGal-3); [2]) was 130 nM and the IC50 (human Gal-1 (hGal-1)) was 460 nM.

`CNS(=O)(=O)N1CCC(O)(C(S[C@@H]2O[C@H](CO)[C@H](O)[C@H](n3cc(-c4cc(F)c(F)c(F)c4)nn3)[C@H]2O)c2ccccc2C(F)(F)F)CC1` (stereo partly drawn) [Example 2.46.112., 4-((((2S,3R,4S,5R,6R)-3,5-Dihydroxy-6-(hydroxymethyl)-4-(4-(3,4,5-trifluorophenyl)-1H-1,2,3-triazol-1-yl)tetrahydro-2H-pyran-2-yl)thio)(2-(trifluoromethyl)phenyl)methyl)-4-hydroxy-N-methylpiperidine-1-sulfonamide] was tested, and the IC50 (human Gal-3 (hGal-3); [2]) was 50 nM and the IC50 (human Gal-1 (hGal-1)) was 270 nM.

`CS(=O)(=O)N1CCC(O)([C@H](S[C@@H]2O[C@H](CO)[C@H](O)[C@H](n3cc(-c4cc(F)c(F)c(F)c4)nn3)[C@H]2O)c2ccccc2C(F)(F)F)CC1` [Example 2.47.112R., (2S,3R,4S,5R,6R)-2-(((R)-(4-Hydroxy-1-(methylsulfonyl)piperidin-4-yl)(2-(trifluoromethyl)phenyl)methyl)thio)-6-(hydroxymethyl)-4-(4-(3,4,5-trifluorophenyl)-1H-1,2,3-triazol-1-yl)tetrahydro-2H-pyran-3,5-diol] gave an IC50 (human Gal-3 (hGal-3); [2]) of 30 nM and an IC50 (human Gal-1 (hGal-1)) of 120 nM.

Work on `CS(=O)(=O)N1CCC(O)([C@@H](S[C@@H]2O[C@H](CO)[C@H](O)[C@H](n3cc(-c4cc(F)c(F)c(F)c4)nn3)[C@H]2O)c2ccccc2C(F)(F)F)CC1` [Example 2.47.112S., (2S,3R,4S,5R,6R)-2-(((S)-(4-Hydroxy-1-(methylsulfonyl)piperidin-4-yl)(2-(trifluoromethyl)phenyl)methyl)thio)-6-(hydroxymethyl)-4-(4-(3,4,5-trifluorophenyl)-1H-1,2,3-triazol-1-yl)tetrahydro-2H-pyran-3,5-diol] yielded an IC50 (human Gal-3 (hGal-3); [2]) of 2820 nM and an IC50 (human Gal-1 (hGal-1)) of 17500 nM.

In the case of `CC(=O)N1CCC(O)(C(S[C@@H]2O[C@H](CO)[C@H](O)[C@H](n3cc(-c4cc(F)c(F)c(F)c4)nn3)[C@H]2O)c2ccccc2C(F)(F)F)CC1` (stereo partly drawn) [Example 2.48.112., 1-(4-((((2S,3R,4S,5R,6R)-3,5-Dihydroxy-6-(hydroxymethyl)-4-(4-(3,4,5-trifluorophenyl)-1H-1,2,3-triazol-1-yl)tetrahydro-2H-pyran-2-yl)thio)(2-(trifluoromethyl)phenyl)methyl)-4-hydroxypiperidin-1-yl)ethan-1-one], the IC50 (human Gal-3 (hGal-3); [2]) is reported as 220 nM and the IC50 (human Gal-1 (hGal-1)) is reported as 750 nM.

Work on `CO[C@@H]1[C@@H](n2cc(-c3cc(F)c(F)c(F)c3)nn2)[C@@H](O)[C@@H](CO)O[C@H]1SC(c1ccccc1C(F)(F)F)C1(O)CCN(C(C)=O)CC1` (stereo partly drawn) [Example 2.48.112.I., 1-(4-Hydroxy-4-((((2S,3R,4S,5R,6R)-5-hydroxy-6-(hydroxymethyl)-3-methoxy-4-(4-(3,4,5-trifluorophenyl)-1H-1,2,3-triazol-1-yl)tetrahydro-2H-pyran-2-yl)thio)(2-(trifluoromethyl)phenyl)methyl)piperidin-1-yl)ethan-1-one] yielded an IC50 (human Gal-3 (hGal-3); [2]) of 190 nM and an IC50 (human Gal-1 (hGal-1)) of 400 nM.

In the case of `CO[C@@H]1[C@@H](n2cc(-c3cc(F)c(F)c(F)c3)nn2)[C@@H](O)[C@@H](CO)O[C@H]1SC(c1ccccc1C(F)(F)F)C1(O)CCN(C(=O)NC2CC2)CC1` (stereo partly drawn) [Example 2.49.112.I.], the IC50 (human Gal-3 (hGal-3); [2]) is reported as 210 nM and the IC50 (human Gal-1 (hGal-1)) is reported as 490 nM.
